The text below walks through data of US9789181B2, “PAN-DR binding polypeptides and uses thereof” (Epimmune Inc., priority 2009, dated 2017).

One assay has as its target HLA DRB1 *0802 (Homo sapiens, UniProt P01903+P01911, A100R/A103L/A169T/F76Y/H45Y/I96F/K41T/L162R/M171V/P40S/Q125H/Q178H/Q39Y/Q99D/R218S/R42G/S66Y/V115G/W38E). The assay is described as follows: IC50nM to purified HLA | DRB1 *0802. On the procedure:
(§1) Table printed on a drawing sheet, FIG. 1 (contd.)
Head of the field: IC50nM to purified HLA | DRB1 *0802
(§2) First copying reader's note: Continued from an earlier sheet of FIG. 1; decimal commas as printed, analog names encode substituted residues and positions, and some values are printed in italics or bold and some SEQ ID NOs underlined without a legend on this sheet.
Where the first naming reader finds the target: head: IC50nM to purified HLA | DRB1 *0802

A further assay addresses HLA DRB1 *1302 (Homo sapiens, UniProt P01903+P01911, A100E/A169T/K41T/L162R/M171V/P40S/Q125H/Q178H/Q39Y/Q99D/R42S/S66N/T262R/V115G/W38E/Y61H). In words: IC50nM to purified HLA | DRB1 *1302. The method, then: as §1
Head of the field: IC50nM to purified HLA | DRB1 *1302
as §2
Where the first naming reader finds the target: head: IC50nM to purified HLA | DRB1 *1302

The target of a further assay is HLA DRB1 *0701 (Homo sapiens, UniProt P01903+P01911, A100R/A102G/A103Q/D57E/D86V/E43K/F76Y/K127E/L162R/M171V/P40G/Q125H/Q99D/R33Q/R42Y/R54Q/S133A/S66F/T210M/V115G/Y107V/Y59L/Y89S). In words: IC50nM to purified HLA | DRB1 *0701. The method, then: as §1
Head of the field: IC50nM to purified HLA | DRB1 *0701
as §2
Where the first naming reader finds the target: head: IC50nM to purified HLA | DRB1 *0701

In a further assay the target is HLA DRB4 *0101 (Homo sapiens, UniProt P01903+P13762, G164S). The assay is described as follows: IC50nM to purified HLA | DRB4 *0101. The method, then:
as §1
Head of the field: IC50nM to purified HLA | DRB4 *0101
as §2
Where the first naming reader finds the target: head: IC50nM to purified HLA | DRB4 *0101

A further assay has as its target HLA DRB1 *0301 (Homo sapiens, UniProt P01903+P01911, A100K/A102G/A103R/A169T/F55Y/I96L/K41T/L162R/M171V/P40S/Q125H/Q178H/Q39Y/R42S/S66N/T106N/T262R/W38E/Y61H). In words: IC50nM to purified HLA | DRB1 *0301. The method, then:
as §1
Head of the field: IC50nM to purified HLA | DRB1 *0301
as §2
Where the first naming reader finds the target: head: IC50nM to purified HLA | DRB1 *0301

A further assay addresses HLA DRB1 *1101 (Homo sapiens, UniProt P01903+P01911, A100R/A169T/A87E/I96F/K41T/L162R/M171V/P40S/Q125H/Q178H/Q39Y/Q99D/R42S/S66Y/T262R/V115G/W38E). The assay is described as follows: IC50nM to purified HLA | DRB1 *1101. The method, then: as §1
Head of the field: IC50nM to purified HLA | DRB1 *1101
as §2
Where the first naming reader finds the target: head: IC50nM to purified HLA | DRB1 *1101

For a further assay, the target named is HLA DRB1 *0101 (Homo sapiens, UniProt P01903+P01911, A100R/D57E/F55L/F60I/F76Y/I96L/L162R/M171V/P40L/Q125E/R42F/V115G/Y59C). The assay is described as follows: IC50nM to purified HLA | DRB1 *0101. On the procedure: as §1
Head of the field: IC50nM to purified HLA | DRB1 *0101
as §2
Where the first naming reader finds the target: head: IC50nM to purified HLA | DRB1 *0101

The next assay addresses HLA DRB1 *1501 (Homo sapiens, UniProt P01903+P01911). In words: IC50nM to purified HLA | DRB1 *1501. The method, then: as §1
Head of the field: IC50nM to purified HLA | DRB1 *1501
as §2
Where the first naming reader finds the target: head: IC50nM to purified HLA | DRB1 *1501

Another assay addresses HLA DRB5 *0101 (Homo sapiens, UniProt P01903+Q30154). The assay is described as follows: IC50nM to purified HLA | DRB5 *0101. The method, then:
as §1
Head of the field: IC50nM to purified HLA | DRB5 *0101
as §2
Where the first naming reader finds the target: head: IC50nM to purified HLA | DRB5 *0101

The next assay has as its target HLA DRB1 *0401 (Homo sapiens, UniProt P01903+P01911, A100K/A169T/F76Y/I96L/K127E/L162R/M171V/N62H/P40V/Q125Y/R42H/S133A/S149N/S66Y/V115G/V209L/W38E). The assay is described as follows: IC50nM to purified HLA | DRB1 *0401. On the procedure:
as §1
Head of the field: IC50nM to purified HLA | DRB1 *0401
as §2
Where the first naming reader finds the target: head: IC50nM to purified HLA | DRB1 *0401

The target in the next assay is HLA DRB1 *0405 (Homo sapiens, UniProt P01903+P01911, A100R/A169T/D86S/F76Y/I96L/K127E/L162R/M171V/N62H/P40V/Q125Y/R42H/S133A/S149N/S66Y/V115G/V209L/W38E). The assay is described as follows: IC50nM to purified HLA | DRB1 *0405. The method, then: as §1
Head of the field: IC50nM to purified HLA | DRB1 *0405
as §2
Where the first naming reader finds the target: head: IC50nM to purified HLA | DRB1 *0405

The target in a further assay is HLA DRB1 *0901 (Homo sapiens, UniProt P01903+P01911, A100R/A103E/D57H/D86V/F55Y/F60I/F76Y/I96F/K127E/L162R/M171V/P40D/Q125H/Q99R/R33Q/R42F/S133A/S66N/T210M/V115G/W38K/Y107V/Y59G/Y89S). The assay is described as follows: IC50nM to purified HLA | DRB1 *0901. On the procedure:
as §1
Head of the field: IC50nM to purified HLA | DRB1 *0901
as §2
Where the first naming reader finds the target: head: IC50nM to purified HLA | DRB1 *0901

The next assay concerns the target HLA DRB1 *0404 (Homo sapiens, UniProt P01903+P01911, A100R/A169T/F76Y/I96L/K127E/L162R/M171V/N62H/P40V/Q125Y/R42H/S133A/S149N/S66Y/V209L/W38E). The assay is described as follows: IC50nM to purified HLA | DRB1 *0404. The method, then:
as §1
Head of the field: IC50nM to purified HLA | DRB1 *0404
as §2
Where the first naming reader finds the target: head: IC50nM to purified HLA | DRB1 *0404

Where no end group is shown, it is not given here.

Sequence of HLA DRB1 *1101 (P01903 26-254 limits assumed, other chains not shown): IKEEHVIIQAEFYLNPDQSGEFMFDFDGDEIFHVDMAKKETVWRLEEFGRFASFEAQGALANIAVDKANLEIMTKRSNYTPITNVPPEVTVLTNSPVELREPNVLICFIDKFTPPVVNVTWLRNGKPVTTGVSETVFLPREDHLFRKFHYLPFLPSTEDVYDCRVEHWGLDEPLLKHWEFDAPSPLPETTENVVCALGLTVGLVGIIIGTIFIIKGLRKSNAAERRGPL
Sequence of HLA DRB1 *1302 (P01903 26-254 limits assumed, other chains not shown): as above
Sequence of HLA DRB1 *0301 (P01903 26-254 limits assumed, other chains not shown): as above
Sequence of HLA DRB4 *0101 (P01903 26-254 limits assumed): as the sequence (P01903 26-254 limits assumed, other chains not shown) above
Sequence of HLA DRB4 *0101 (P13762 whole entry G164S): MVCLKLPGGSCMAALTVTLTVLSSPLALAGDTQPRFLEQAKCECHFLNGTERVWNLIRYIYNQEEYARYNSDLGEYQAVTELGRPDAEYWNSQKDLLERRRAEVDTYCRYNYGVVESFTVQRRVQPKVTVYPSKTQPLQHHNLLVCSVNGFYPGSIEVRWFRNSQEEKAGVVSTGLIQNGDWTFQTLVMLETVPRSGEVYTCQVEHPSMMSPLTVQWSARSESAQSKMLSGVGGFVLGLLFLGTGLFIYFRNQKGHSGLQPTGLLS

As to AAAIFVAAYTLHAAA [SEQ ID NO: 70], the IC50 turned out to be 9.4 nM against HLA DRB1 *0802; 1950 nM against HLA DRB1 *1302; 95 nM against HLA DRB1 *0701; 346 nM on HLA DRB4 *0101; 301 nM at HLA DRB1 *0301; 19 nM against HLA DRB1 *1101. In addition, the half-inhibitory concentration (IC50) at HLA DRB1 *0101 is 5.7 nM; on HLA DRB1 *1501, 3.2 nM.
With AAAQFVAAWTLKAAA [SEQ ID NO: 63], the IC50 against HLA DRB4 *0101 stood at 259 nM; on HLA DRB5 *0101, 5.2 nM; at HLA DRB1 *0301 it was 271 nM; against HLA DRB1 *0401 it was 1.6 nM; at HLA DRB1 *1101, 12 nM; against HLA DRB1 *0101, 5.1 nM. For the same sequence, the IC50 against HLA DRB1 *0405 came out at 21 nM; against HLA DRB1 *1501, 17 nM.
In the case of AAANFVAAFTLHAAA [SEQ ID NO: 53], the IC50 worked out at 12 nM against HLA DRB1 *0802; 52 nM on HLA DRB1 *0701; 111 nM against HLA DRB4 *0101; 254 nM on HLA DRB1 *0301; 1.6 nM at HLA DRB1 *0401; 41 nM on HLA DRB1 *0901. The IC50 against HLA DRB1 *0101 was 4.7 nM; at HLA DRB1 *0405 it was 12 nM.
As for AAAQFVAAFTLHAAA [SEQ ID NO: 66], the concentration for half-maximal inhibition (IC50) against HLA DRB1 *0802 stood at 13 nM; against HLA DRB4 *0101 it was 97 nM; against HLA DRB1 *0401 it was 2.7 nM; at HLA DRB1 *0901, 31 nM; against HLA DRB1 *0405, 7.7 nM; against HLA DRB1 *0404, 4.4 nM.
With AAANFVAAYTLKAEA [SEQ ID NO: 60], the IC50 at HLA DRB1 *0802 is 21 nM; on HLA DRB1 *1302, 590 nM; on HLA DRB4 *0101, 718 nM; at HLA DRB1 *0301, 1070 nM; against HLA DRB1 *0401, 13 nM; on HLA DRB1 *0901 it was 43 nM. Also, the figures for the IC50 at HLA DRB1 *1501 and against HLA DRB1 *0404 were 11 nM and 6.1 nM, respectively.
As for AAAQFVAANTLHAAA [SEQ ID NO: 67], the IC50 was 24 nM against HLA DRB1 *0802; 76 nM on HLA DRB1 *0701; 319 nM against HLA DRB1 *0301; 3.3 nM at HLA DRB1 *0401; 44 nM against HLA DRB1 *1101; 78 nM at HLA DRB1 *1501.
With AAANFVAAWTLKADA [SEQ ID NO: 55], the IC50 against HLA DRB1 *0802 is 35 nM; on HLA DRB1 *0701 it was 52 nM; against HLA DRB5 *0101, 24 nM; against HLA DRB1 *0401, 5.5 nM; against HLA DRB1 *1101, 41 nM; against HLA DRB1 *0101, 7.6 nM. The IC50 on HLA DRB1 *0404 came to 9.7 nM.
Regarding AAANFVAANTLHAAA [SEQ ID NO: 54], the concentration for half-maximal inhibition (IC50) was 44 nM on HLA DRB1 *1302; 84 nM against HLA DRB1 *0701; 1110 nM against HLA DRB4 *0101; 43 nM at HLA DRB5 *0101; 3.4 nM at HLA DRB1 *0401; 6.1 nM against HLA DRB1 *0101. Moreover, the half-maximal inhibitory concentration (IC50) at HLA DRB1 *1501 is 114 nM.

Broadly, the IC50 is the concentration needed to halve the response being measured. A lower IC50 goes with greater potency in that assay.
